Assay results taken from the supplement of paper PMC11061612.

What was measured:
Assay in all cases: Bliss excess, mean over the matrix (fraction); higher = more synergy
[1] = system: NY (Osteosarcoma)
Outline: (§1)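 Bliss excess equals the observed combination effect minus the expected value EA + EB − EA·EB, where EA and EB are the effects of each agent alone. Combination Emax is the second-highest inhibition within the matrix. Inhibition was scaled from CellTiter-Glo 2.0 luminescence, with 0 set by vehicle wells and 1 by blank wells, after 72 hours of two-drug dosing of cells plated in 1536-well plates.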

[2] = system: NCI-H1666 (Lung Adenocarcinoma)
Outline: as §1

[3] = system: TT (Thyroid Gland Carcinoma)
Outline: as §1

[4] = system: COLO-824 (Breast Carcinoma)
Outline: as §1

[5] = system: VCaP (Prostate Carcinoma)
Outline: as §1

[6] = system: LN-405 (Glioblastoma)
Outline: as §1

[7] = system: IGR-37 (Melanoma)
Outline: as §1

[8] = system: NCI-H1650 (Lung Adenocarcinoma)
Outline: as §1

[9] = system: HCC1954 (Breast Carcinoma)
Outline: as §1

[10] = system: A498 (Kidney Carcinoma)
Outline: as §1

[11] = system: A3-KAW (B-Cell Non-Hodgkin's Lymphoma)
Outline: as §1

[12] = system: GI-ME-N (Neuroblastoma)
Outline: as §1

[13] = system: JSC-1 (B-Cell Non-Hodgkin's Lymphoma)
Outline: as §1

[14] = system: PANC-10-05 (Pancreatic Carcinoma)
Outline: as §1

[15] = system: SK-MES-1 (Squamous Cell Lung Carcinoma)
Outline: as §1

[16] = system: NCI-H1581 (Non-Small Cell Lung Carcinoma)
Outline: as §1

[17] = system: CAPAN-2 (Pancreatic Carcinoma)
Outline: as §1

[18] = system: ARH-77 (Non-Cancerous)
Outline: as §1

[19] = system: COR-L311 (Small Cell Lung Carcinoma)
Outline: as §1

[20] = system: NCI-H64 (Small Cell Lung Carcinoma)
Outline: as §1

| SMILES | Bliss excess [1] | Bliss excess [2] | Bliss excess [3] | Bliss excess [4] | Bliss excess [5] | Bliss excess [6] | Bliss excess [7] | Bliss excess [8] | Bliss excess [9] | Bliss excess [10] | Bliss excess [11] | Bliss excess [12] | Bliss excess [13] | Bliss excess [14] | Bliss excess [15] | Bliss excess [16] | Bliss excess [17] | Bliss excess [18] | Bliss excess [19] | Bliss excess [20] |
| --- | --- | --- | --- | --- | --- | --- | --- | --- | --- | --- | --- | --- | --- | --- | --- | --- | --- | --- | --- | --- |
| COc1cccc(OCCCN)c1-c1cc(Nc2cnc(C#N)cn2)n[nH]1 [Prexasertib] + CN(C)CCCOc1ccc(-c2ccc3ncc4c(c3c2)n(C2CCOCC2)c(=O)n4C)cn1 [AZD0156] (first compound max 1 µM, 7x7, partner max 1 µM) | 0.0007 | -0.0291 | -0.004 | -0.0047 | -0.0463 | 0.0013 | 0.0026 | -0.0451 | -0.0298 | 0.034 | 0.0134 | 0.0737 | -0.0111 | -0.0435 | -0.0471 | 0.0112 | 0.0147 | 0.0018 | -0.0532 | -0.0359 |
| Cc1c2c(nn1C)CSCc1cc(n(C)n1)CSc1cc(c3ccccc3c1)OCCCc1c(C(=O)O)n(C)c3c-2c(Cl)ccc13 [AZD5991] + CC1(C)CCC(CN2CCN(c3ccc(C(=O)NS(=O)(=O)c4ccc(NCC5CCOCC5)c([N+](=O)[O-])c4)c(Oc4cnc5[nH]ccc5c4)c3)CC2)=C(c2ccc(Cl)cc2)C1 [Venetoclax] (first compound max 1 µM, 7x7, partner max 1 µM) | 0.0232 | -0.0478 | 0.0887 | 0.11 | -0.0351 | 0.0082 | -0.0167 | -0.0246 | 0.0401 | -0.108 | 0.0191 | -0.0408 | 0.0155 | -0.0506 | -0.0302 | -0.0061 | -0.0292 | 0.0087 | 0.157 | 0.0308 |
| C=CCn1c(=O)c2cnc(Nc3ccc(N4CCN(C)CC4)cc3)nc2n1-c1cccc(C(C)(C)O)n1 [AZD1775] + C[C@@H]1COCCN1C2=NC(=NC(=C2)C3(CC3)[S@](=N)(=O)C)C4=C5C=CNC5=NC=C4 [AZD6738] (first compound max 1 µM, partner max 10 µM) | -0.0386 | 0.0189 | -0.0676 | 0.0691 | 0.006 | -0.0025 | 0.0017 | -0.0054 | 0.111 | -0.0536 | 0.0285 | -0.0397 | 0.0409 | -0.0611 | -0.0223 | 0.0228 | -0.0608 | 0.0324 | 0.0133 | 0.0015 |
| C=CCn1c(=O)c2cnc(Nc3ccc(N4CCN(C)CC4)cc3)nc2n1-c1cccc(C(C)(C)O)n1 [AZD1775] + O=C(c1cc(Cc2n[nH]c(=O)c3ccccc23)ccc1F)N1CCN(C(=O)C2CC2)CC1 [Olaparib] (first compound max 1 µM, partner max 10 µM) | -0.0731 | 0.0278 | -0.0543 | -0.0423 | -0.0494 | -0.0583 | -0.0132 | -0.0643 | -0.0208 | -0.067 | 0.0183 | -0.0434 | -0.0434 | -0.0871 | -0.0915 | -0.0262 | -0.0576 | -0.004 | -0.0848 | -0.0547 |
| Cn1cnc2c(F)c(Nc3ccc(Br)cc3Cl)c(C(=O)NOCCO)cc21 [Selumetinib] + C=CCn1c(=O)c2cnc(Nc3ccc(N4CCN(C)CC4)cc3)nc2n1-c1cccc(C(C)(C)O)n1 [AZD1775] (first compound max 10 µM, partner max 1 µM) | -0.071 | -0.0542 | -0.0599 | -0.105 | -0.063 | -0.0962 | 0.0122 | -0.0792 | -0.0005 | -0.0218 | -0.0575 | -0.064 | -0.0432 | -0.0898 | -0.0469 | 0.0258 | 0.033 | -0.0518 | -0.0518 | -0.005 |
| COc1cccc(OCCCN)c1-c1cc(Nc2cnc(C#N)cn2)n[nH]1 [Prexasertib] + Cc1cc2ncnn2cc1Nc1ncc2c(n1)n(C1CCOCC1)c(=O)n2C [AZD7648] (first compound max 1 µM, 7x7, partner max 10 µM) | -0.0328 | -0.0176 | -0.0144 | -0.01 | -0.0509 | -0.017 | -0.058 | 0.0011 | -0.0179 | -0.0206 | 0.0126 | 0.107 | -0.0189 | -0.038 | -0.0411 | 0.022 | -0.0045 | -0.0015 | -0.0289 | -0.0242 |
